Where two headings read alike, the source gives them in different places.
Key:
[1] = tested on: RAW 264.7 cells; assay type: cell-based, murine; conditions: for Inhibition of LPS-induced RNI-IC50: LPS-induced (2.5 ng/ml LPS in FIG. 6B); for concentrations at which peptides are active in the bioassay: day-to-day variation
Protocol: From the sequence of the CAP18 cDNA, it was apparent that the putative N-terminal peptide of CAP18 was in fact an internal fragment of the CAP18 protein. We therefore tried to reconfirm the original protein sequence. Neutrophil-derived heparin bound cationic proteins were prepared as described above and applied to a C18 reverse phase HPLC (FIG. 1). We sequenced the major peaks. Peaks at fractions 14.5 and 15.2 correspond to defensins MCP1 and MCP2 (Territo et al. (1989) J. Clin. Invest. 84:2017-2019), respectively. Fraction 25.8 is macrophage related protein 14 (MRP14) (Odink et al. (1987) Nature 330:80-82). The fraction at 20.3 minutes corresponds to a fragment of CAP18 of approximately 4-5 kD. […] The murine macrophage cell line RAW 264.7 (obtained from ATCC) and thioglycolate-elicited murine peritoneal exudate cells are used to produce RNI. Cells are cultured at 1×10^6 /ml. in RPMI-1640 +2.5% FCS in 24 well plates in the presence or absence of different concentrations of LPS or murine rlFNγ. After 24 hr. incubation at 37° C. the cell free supernatant is collected and tested for the presence of RNI. Accumulation of nitrite in the medium is measured by a colorimetric assay based on the Griess reaction (Green et al. (1982) Anal. Biochem. 126:11) using sodium nitrite as standards. Sample (50 μl) is mixed with 50 μl of Griess reagent (1% sulfanilamide, 0.1% naphthalene diamine dihydrochloride, 2.5% H3 PO4) and after 10 min. at room temperature absorbance is read at 570 nm.

[2] = tested on: Salmonella minnesota ReLPS sensitized sheep erythrocytes; assay: LPS hemagglutination assay (MAC); assay type: binding
Protocol: For hemagglutination assays, erythrocytes were sensitized with LPS as follows. One ml of 1% erythrocyte suspension (human 0 type, C3H/HeN mouse or sheep) was mixed with 0.2 ml of LPS solution and incubated at 37° C. for 30 min, followed by washing with phosphate buffered saline (PBS), and then the concentration of suspension was adjusted to 1.0%. In the case of S-LPS, the solution was heated at 100° C. for 1 hour before sensitization of erythrocytes. […] Activity of CAP was expressed as a minimum agglutinating concentration (MAC) of CAP. According to the method of Kirikae et al. (1986) Microbiol. Immunol. 30:269-274, 50 μl of 2-fold serial dilution of Re-LPS was added to 50 μl of 1.0% rabbit erythrocyte suspension, and incubated at 37° C. for 3, hour. Minimum agglutinating concentration of Re-LPS was expressed as 1 HA unit.

[3] = tested on: thioglycolate-stimulated murine peritoneal macrophages; assay: LPS-induced tissue factor generation by macrophages; assay type: cell-based; conditions: for inhibition of LPS induced tissue factor: peptide 1 μg/ml, 6 hr, FIG. 12
Protocol: […] Cells were cultured for 6 hours prior to assay of tissue factor by clotting assay.
[…] Production of tissue factor after 6 hr. was measured by clotting assay. […] In the absence of LPS no tissue factor is synthesized by these cells.

[4] = tested on: Human plasma; assay: Prothrombin time (PT); assay type: biochemical; conditions: for inhibition of prothrombin time (PT), words: FIG. 14A
Protocol: (§1) Clotting method: Human plasma (Ortho plasma control, Ortho Diagnostic Co.). ATPP reagent (Organotechnika, Tokyo, Japan). Standard tissue factor, rabbit brain thromboplastin (Simplastin, ONO Pharmaceutical, Tokyo, Japan). Purified human factor VII, factor X, factor Xa (Sigma Chemical Co., St. Louis, Mo.). Russell Viper venom (RVV) and Echis carinatus venom (ECV, Sigma Co.).
(§2) Instrumentation: Clotting assays were carried out using a Fibrometer (BioQuest Division, Becton Dickinson; Cokeysville, […]., USA).
Human plasma (100 μl) was incubated with 100 μl of each peptide at 37° C. for 3 min., then 100 μl of tissue factor (250 μg/ml) CaCl2 was added and clotting time was measured.

[5] = tested on: Human plasma; assay: Activated partial thromboplastin time (APTT); assay type: biochemical
Protocol: as §1, §2
Human plasma (100 μl), 100 μl of APTT reagent and 100 μl of peptide was incubated at 37° C. for 5 min after which CaCl2 was added and clotting time measured.

[6] = target: T1, factor Xa (Homo sapiens, UniProt P00742); assay: Direct inhibition of Xa, substrate S2222; assay type: biochemical; conditions: for direct Xa inhibition: concentrations over 10 μg/ml, substrate S2222; for IC50 / IC50, Direct Xa: synthetic substrate
T1 construct: purchased Sigma Chemical Co., St. Louis, Mo
T1 sequence (P00742 41-179 limits assumed): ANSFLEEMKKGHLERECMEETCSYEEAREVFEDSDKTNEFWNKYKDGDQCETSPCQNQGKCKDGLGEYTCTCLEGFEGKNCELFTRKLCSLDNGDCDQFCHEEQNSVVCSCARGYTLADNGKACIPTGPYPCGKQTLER
T1 sequence (P00742 235-488 limits assumed): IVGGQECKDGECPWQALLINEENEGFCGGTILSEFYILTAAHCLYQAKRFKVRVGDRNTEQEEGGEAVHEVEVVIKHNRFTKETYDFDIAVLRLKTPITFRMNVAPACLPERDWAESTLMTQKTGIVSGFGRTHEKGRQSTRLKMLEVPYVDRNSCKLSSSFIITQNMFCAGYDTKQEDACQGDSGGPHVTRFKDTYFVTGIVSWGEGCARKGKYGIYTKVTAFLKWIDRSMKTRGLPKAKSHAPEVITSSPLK
Description: as §1
(§3) Synthetic chromogenic substrate method: Substrate for factor Xa, S2222 (Kabi, Bz-Ile-Glu-Arg-pNA) was used. Substrate for factor II (prothrombin), Boc-Val-Pro-Arg-pNA (Sigma Chemical Co.) was used.
Next the effect of the RNIP peptides on the conversion of factor X to Xa was studied by two methods. […] In summary these studies confirmed that the peptides inhibit the clotting cascade by inhibiting the conversion of factor X to Xa.

[7] = target: T2, factor X (Homo sapiens, UniProt P00742); assay: Factor X activation by tissue factor and factor VII, synthetic substrate S-2222; assay type: biochemical; conditions: FIG. 16B
T2 construct: purchased Sigma Chemical Co., St. Louis, Mo
T2 sequence (P00742 41-179 limits assumed): as the sequence (P00742 41-179 limits assumed) above
T2 sequence (P00742 183-488 limits assumed): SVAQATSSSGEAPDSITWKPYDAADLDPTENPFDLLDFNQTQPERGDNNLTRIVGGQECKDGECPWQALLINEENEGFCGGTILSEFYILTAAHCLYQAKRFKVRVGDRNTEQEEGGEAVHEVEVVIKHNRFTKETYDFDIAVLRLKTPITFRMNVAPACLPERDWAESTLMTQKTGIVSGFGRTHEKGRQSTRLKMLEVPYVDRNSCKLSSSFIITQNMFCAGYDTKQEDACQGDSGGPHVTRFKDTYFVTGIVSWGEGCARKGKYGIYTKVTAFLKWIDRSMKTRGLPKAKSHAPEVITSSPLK
Description: as §1, §3
A reaction mixture of factor VII (1 unit/ml, 200 μl), factor X (1 unit/ml, 200 μl), tissue factor (2.5 mg/ml, 50 μl), 25 mM-CaCl2(50 μl) and 50 μl of several concentration of peptide was incubated at 37° C. for 10 min. To 200 μl of the reaction mixture, 60 μl of 4 mM S-2222, a synthetic substrate for factor Xa, and 340 μl of Tris-HCl buffer, pH 8.2, was added and further incubated for 15 min. The reaction was stopped by adding 60 μl of 50% acetic acid, and OD for p-nitroaniline was read at 405 nm.

[8] = target: prothrombin (factor II) (Homo sapiens, UniProt P00734); assay: Prothrombin activation by Echis carinatus venom (ECV); assay type: biochemical; conditions: FIG. 17A
Protocol: as §3
A reaction mixture of prothrombin (factor II) (0.1 unit/ml, 200 μl), ECV (1 unit/ml, 200 μl), various concentration of peptide (70 μl), 50 μl of 25 mM-CaCl2 and 180 μl of Tris buffer was incubated at 37° C. for 10 min. To 300 μl of the reaction mixture, 60 μl of 4mM-thrombin substrate and 240 μl of buffer was added and further incubated for 15 min.

[9] = tested on: Pseudomonas aeruginosa; assay: Antibacterial CFU assay; conditions: for IC50: read-out: anti-bacterial IC50 (CFU)
[10] = tested on: methicillin-resistant Staphylococcus aureus; assay: Antibacterial CFU assay; conditions: for IC50: read-out: IC50, inhibition of CFU

Substance | activity in hemagglutination and inhibition of LPS-induced RNI [1] | Inhibition of LPS-induced RNI-IC50 [1] | concentrations at which peptides are active in the bioassay [1] [nM] | Hemagglutination MAC (minimum agglutinating concentration) [2] [µg/mL] | inhibition of LPS induced tissue factor [3] | IC50, Prothrombin time [4] [µg/mL] | inhibition of prothrombin time (PT), words [4] | IC50, Activate Partial Thromboplastin time [5] [µg/mL] | direct Xa inhibition [6] | IC50 [6] [nM] | IC50, Direct Xa [6] [µg/mL] | IC50, factor X activated by tissue factor and purified factor VII [7] [µg/mL] | inhibition of Echis carinatus venom activation of purified factor II to IIa [8] | IC50 [9] [nM] | IC50, inhibition of CFU [10] [µg/mL] | IC50 [10] [nM] | further results
36-1: synthetic rabbit RNIP-derived fragment, amino acids 135-166 of SEQ ID NO:4 (GLRKRLRKFRNKIKEKLKKIGQKIQGLLPKLA) | active | 0.08 µg/mL | 10 to 50 | 3.9 | inhibition | 2.0 | inhibited | 3.8 | No evidence of direct Xa inhibition | 8000 to 46000 | 45 to 250 | 0.6 to 0.7 | inhibited | < 50 | 0.72 | 130 | IC50 ([5]; read-out: IC50, Activate Partial Thromboplastin time): 700 nM; anti-bacterial IC50 (CFU) [9]: < 0.25 µg/mL
RNIP: reactive nitrogen inhibitory protein, amino acids 135-171 of SEQ ID NO:4 (rabbit CAP18 C-terminus); purified from granulocytes or synthetic (#197) (GLRKRLRKFRNKIKEKLKKIGQKIQGLLPKLAPRTDY) | active | about 0.2 μg/ml | 10 to 50 | 7.9 | inhibition | 1.9 | inhibited | 3.2 | No evidence of direct Xa inhibition | 9000 to 33000 | 55 to 200 | 0.3 to 0.6 | inhibited | < 40 | 1 | 160 | IC50 ([1]; 2.5 ng/ml LPS, FIG. 6B, read-out: 50% inhibitory concentration (IC50), LPS-induced RNI production): ~30 nM; capacity to inhibit LPS-stimulated nitrogen radical release from macrophages ([1]; HPLC-purified rabbit peptides, FIG. 5): active; reactive nitrogen intermediates (RNI) ([1]; LPS (2.5 ng/ml), RNIP (1:1), stimulus alone 27): 4 µM; reactive nitrogen intermediates (RNI) ([1]; LPS (2.5 ng/ml), RNIP (1:10), stimulus alone 27): 16 µM; reactive nitrogen intermediates (RNI) ([1]; LPS (2.5 ng/ml), RNIP (1:100), stimulus alone 27): 24 µM; Inhibition of LPS-induced RNI-IC50 ([1]; listed as 197/RNIP): 0.2 µg/mL; reactive nitrogen intermediates (RNI) ([1]; Murine IFNγ (250 U), RNIP (1:1), stimulus alone 30): 15 µM; reactive nitrogen intermediates (RNI) ([1]; Murine IFNγ (250 U), RNIP (1:10), stimulus alone 30): 18 µM; reactive nitrogen intermediates (RNI) ([1]; Murine IFNγ (250 U), RNIP (1:100), stimulus alone 30): 20 µM; inhibition of LPS-induced tissue factor generation when peptide added after LPS ([3]; added as late as 3 hours after the LPS stimulus, FIG. 13): Significant inhibition; IC50 [4]: 300 nM; IC50 ([7]; read-out: IC50, factor X activated by tissue factor and purified factor VII): 40 to 100 nM; IC50, Echis carinatus venom activation of factor II to IIa [8]: 9.4 µg/mL; IC50 ([8]; read-out: IC50, Echis carinatus venom activation of factor II to IIa): 1500 nM; anti-bacterial IC50 (CFU) ([9]; FIG. 6E): < 250 µg/mL

— patent US5618675A, “Methods and compositions for detecting lipopolysaccharides using CAP18 fragments” (Panorama Research, Inc., dated 1997)
